Like-named read-outs stand apart in the source and are kept apart here.
Tests used:
[1] = Cytotoxicity concurrent with HCMV AD169 primary assay; assay type: cell-based, human; settings: human, CC50
Murine CMV strain Smith [2] = experiment: Murine CMV secondary assay, strain Smith, MEF cells; assay type: cell-based, Mouse Cytomegalovirus
Protocol: (§1) Compounds that were positive in the CPE assay were confirmed in a similar assay in 96-well plates according to established laboratory protocols with the compounds added 1 h post infection […]. Additionally, 12 1:3 dilutions were done instead of 6 1:5 dilutions for added accuracy. Genome copy number was determined by qPCR using primers 5′-[…]-3′, 5′ […]-3′, and probe 5′-[…]-3′.

MEF cells = experiment: Cytotoxicity concurrent with Murine CMV secondary assay; assay type: cell-based, mouse
Protocol: as §1

Murine CMV strain Smith [3] = experiment: Murine CMV primary assay, strain Smith, MEF cells; assay type: cell-based, Mouse Cytomegalovirus
HCMV strain AD169 [4] = experiment: HCMV primary assay (CPE), strain AD169, HFF cells; assay type: cell-based, Human Cytomegalovirus; settings: HCMV primary assay, virus strain AD169, HFF cells; for EC50: read-out: EC50; for EC90: read-out: EC90
Protocol: The antiviral activity of the compound against HCMV in the described Primary assay was measured by treating primary Human foreskin fibroblast (HFF) cells infected with HCMV with a range of compound concentrations—description of methods for this assay can be found in section 1.3.2.1. […] . Additional tested assay parameters in this Primary assay can be found in Table 3.2.1 and include EC90, S150, and S190 values—descriptions of those data points can be found in section 3.2.1.

[5] = Cytotoxicity concurrent with HCMV secondary assay; assay type: cell-based; settings: human
Protocol: (§2) Monolayers of HFF cells were prepared in 96-well plates and incubated at 37° C. for 1 d to allow the cells to reach confluency. Media was then aspirated from the wells and cells infected at a high MOI. At 1 h following infection, the inocula were removed and the monolayers rinsed with fresh media. […] Drug dilutions were added to the wells and the plates were incubated for various times, depending on the virus used and represents a single replication cycle for the virus. A duplicate set of dilutions were also performed but remained uninfected to serve as a cytotoxicity control and received equal compound exposure. Supernatants from each of the infected wells were subsequently titered using CTG in a TCID50 assay to quantify the progeny virus. For HCMV only, viral yield in the supernatants from the infected cells were titered using qPCR with HCMV primers [NT], and probe [NT].

HCMV strain AD169 [6] = experiment: HCMV secondary assay (yield reduction), strain AD169, HFF cells; assay type: cell-based, Human Cytomegalovirus; settings: Human betaherpesvirus 5, virus strain AD169, HFF cells
Protocol: as §2

[7] = Metabolic stability in mice liver microsomes
Protocol: Potassium phosphate buffer (Kphos) was prepared by adding 0.647 g potassium phosphate monobasic (KH2PO4) and 3.527 g potassium phosphate dibasic (K2HPO4) to 400 mL of Milli-Q water. pH of the buffer was adjusted to 7.4 and volume was made up to 500 mL.
Stock solutions of the test compounds were prepared in DMSO at a concentration of 1 mM.
To this microsomal mix 1.42 μL (1 mM) of test compound and positive control were spiked, from this mix 70 μL was transferred to 96 well plate and pre-incubated at 37° C. for 5 min. […] The plates were centrifuged at 4000 RPM for 15 min and 100 μL aliquots were submitted for analysis by LC-MS/MS.
Samples were monitored for parent compound disappearance in MRM mode using LC-MS/MS. The LC-MS/MS conditions and MRM chromatogram will be provided as per client request.
The peak area ratios of analyte versus internal standard were used to calculate the % remaining at the end of 60 minutes in presence NADPH.

[8] = Cytotoxicity concurrent with HSV1 E-377 primary assay; assay type: cell-based; settings: human
Protocol: (§3) Assays were performed in monolayers as described. […] Toxicity was measured using CTG as above. […] Toxicity was measured using CTG as above.

HSV1 strain E-377 = experiment: HSV1 primary assay, strain E-377, HFF cells; assay type: cell-based, Herpes Simplex Virus 1; settings: Human alphaherpesvirus 1, HSV1 primary assay, strain E-377, HFF cells; for EC50: read-out: EC50; for EC90: read-out: EC90
Protocol: as §3
(§4) Monolayers of HFF cells were prepared in six-well plates and incubated at 37° C. for 2 d to allow the cells to reach confluency. Media was then aspirated from the wells and 0.2 mL of virus-containing solution was added to each of three wells to yield 20-30 plaques in each well. The virus was allowed to adsorb to the cells for 1 h and the plates were agitated every 15 minutes. Compounds were diluted in assay media consisting of MEM with Earl's salts supplemented with 2% FBS, glutamine, penicillin, and gentamycin. Diluted drug was added to duplicate wells and the plates were incubated for various times, depending on the virus used. For HSV-1 and -2, the monolayers were then stained with 1% crystal violet in 20% methanol and the unbound dye removed by washing with dH20. For all other assays, the cell monolayer was stained with 1% Neutral Red solution for 4-6 h then the stain was aspirated and the cells were washed with PBS.

[9] = Cytotoxicity concurrent with Adenovirus secondary assay; assay type: cell-based; settings: human, uninfected HFF cell monolayers; Adeno secondary assay, HFF cells
Protocol: as §2

[10] = Cytotoxicity concurrent with VZV Ellen primary assay; assay type: cell-based; settings: human
Protocol: as §3

[11] = test system: Epstein-Barr virus Akata strain; experiment: Epstein-Barr primary assay, Akata strain, Akata cells; assay type: cell-based; settings: human gammaherpesvirus 4, Epstein-Barr primary assay, Akata strain, Akata cells; for EC50: read-out: EC50; for EC90: read-out: EC90
[12] = test system: Adenovirus Adenoid75 strain; experiment: Adenovirus primary assay, Adenoid75 strain, HFF cells; assay type: cell-based; settings: unidentified adenovirus, Adenovirus primary assay, HFF cells, Adenoid75 strain; for EC50: read-out: EC50; for EC90: read-out: EC90
[13] = Cytotoxicity concurrent with EBV primary assay; settings: human, Akata cells without virus induction
[14] = Cytotoxicity concurrent with Adenovirus primary assay; assay type: cell-based; settings: human
[15] = Cytotoxicity concurrent with HSV2 primary assay; assay type: cell-based; settings: human
Protocol: as §3

[16] = test system: Adenovirus Adenoid75 strain; experiment: Adenovirus secondary assay (yield reduction), Adenoid75 strain, HFF cells; assay type: cell-based; settings: unidentified adenovirus; Adeno secondary assay, strain Adenoid75, HFF cells; read-out: EC90
Protocol: as §2

HSV2 strain G = experiment: HSV2 primary assay, strain G, HFF cells; assay type: cell-based, herpes simplex virus 2; settings: Human alphaherpesvirus 2, HSV2 primary assay, strain G, HFF cells; for EC50: read-out: EC50; for EC90: read-out: EC90
Protocol: as §3, §4

VZV strain Ellen = experiment: VZV primary assay, strain Ellen, HFF cells; assay type: cell-based, Varicella Zoster Virus; settings: Human alphaherpesvirus 3, VZV primary assay, strain Ellen, cell line HFF; for EC50: read-out: EC50; for EC90: read-out: EC90
Protocol: as §3, §4

HFF cells = experiment: Cytotoxicity concurrent with HCMV AD169 primary assay; assay type: cell-based, human
[17] = test system: HCMV strain GDGr K17 - resistant isolate; experiment: HCMV primary assay, resistant isolate GDGr K17, HFF cells; assay type: cell-based, Human Cytomegalovirus; settings: Human betaherpesvirus 5, HFF
Protocol: as §3

CDK9/cyclin T1 = CDK9/cyclin T1 (Homo sapiens (Human), UniProt P50750); experiment: Kinase activity assay, CDK9/cyclin T1; assay type: biochemical; settings: Table 3.1.1; 10 μM ATP; 10-dose duplicate, 3-fold serial dilution starting at 10 μM; read-out: Compound IC50 CDK9/cyclin T1
[18] = mice liver microsomes, 1 μM compound, 1 mM NADPH, 60 min

Chain of CDK9/cyclin T1 (P50750 whole entry): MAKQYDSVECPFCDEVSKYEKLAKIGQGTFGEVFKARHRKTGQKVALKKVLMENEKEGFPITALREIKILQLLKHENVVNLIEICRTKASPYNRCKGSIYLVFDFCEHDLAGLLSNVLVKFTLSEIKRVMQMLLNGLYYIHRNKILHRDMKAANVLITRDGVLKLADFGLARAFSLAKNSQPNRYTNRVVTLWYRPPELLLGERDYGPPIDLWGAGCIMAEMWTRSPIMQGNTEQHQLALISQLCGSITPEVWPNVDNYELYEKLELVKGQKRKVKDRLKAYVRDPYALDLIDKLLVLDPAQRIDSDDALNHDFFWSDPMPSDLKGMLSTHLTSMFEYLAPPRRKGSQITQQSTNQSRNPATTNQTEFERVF
Chain of CDK9/cyclin T1 (O60563 whole entry partner): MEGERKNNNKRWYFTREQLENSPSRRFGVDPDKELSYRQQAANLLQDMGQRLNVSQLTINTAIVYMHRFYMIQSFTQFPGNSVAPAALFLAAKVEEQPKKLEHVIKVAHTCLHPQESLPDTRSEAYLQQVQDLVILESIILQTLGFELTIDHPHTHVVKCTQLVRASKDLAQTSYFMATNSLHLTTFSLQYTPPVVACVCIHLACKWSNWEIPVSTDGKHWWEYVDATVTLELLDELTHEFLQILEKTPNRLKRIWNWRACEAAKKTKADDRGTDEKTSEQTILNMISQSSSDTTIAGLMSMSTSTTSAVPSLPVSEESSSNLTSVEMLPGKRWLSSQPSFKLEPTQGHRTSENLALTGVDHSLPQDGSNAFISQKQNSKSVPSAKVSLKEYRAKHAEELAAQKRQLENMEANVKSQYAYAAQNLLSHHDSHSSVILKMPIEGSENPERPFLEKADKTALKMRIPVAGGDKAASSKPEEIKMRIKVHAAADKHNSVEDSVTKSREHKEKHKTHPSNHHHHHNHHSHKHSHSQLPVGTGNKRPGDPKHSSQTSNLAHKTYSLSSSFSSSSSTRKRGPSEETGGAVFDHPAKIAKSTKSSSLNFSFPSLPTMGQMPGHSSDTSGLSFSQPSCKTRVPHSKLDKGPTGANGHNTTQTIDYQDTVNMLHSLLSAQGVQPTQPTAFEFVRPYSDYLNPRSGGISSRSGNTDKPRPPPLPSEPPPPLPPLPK

Structure (SMILES): Nc1nc(O)c2ncn(COC(CO)CO)c2n1 [Ganciclovir, ganciclovir, reference compound]
- CC50 [1]: 150 µM
- EC50 (Murine CMV strain Smith [2]): 7.4 µM
- EC90 (Murine CMV strain Smith [2]): 26 µM
- CC50 (MEF cells): 84.8 μ.M
- EC50 (Murine CMV strain Smith [3]): 5.48 µM
- EC90 (Murine CMV strain Smith [3]): 24.9 µM
- EC50 (HCMV strain AD169 [4]; Human betaherpesvirus 5): 1.78 µM
- EC90 (HCMV strain AD169 [4]; Human betaherpesvirus 5): 5.67 µM
- CC50 [5]: 20 µM
- EC90 (HCMV strain AD169 [6]): 3.88 µM

Structure (SMILES): CN(C)C1CCC(Nc2cc3c4ccc(F)cc4nn3cn2)CC1 (stereo not shown) [VKT-007]
- % Remaining at 60 min [7, 18]: 54%
- CC50 [8]: 16.1 µM
- EC50 (HSV1 strain E-377): 10 µM
- EC90 (HSV1 strain E-377): 10 µM

Structure (SMILES): Fc1ccc2c(c1)nn1cnc(NC3CCCOCC3)cc21 (stereo not shown) [VKT-015]
- CC50 [1]: 27.7 µM
- CC50 [9]: 48.6 µM
- CC50 [10]: 39.7 µM
- EC50 [11]: 8.73 µM
- EC90 [11]: 29.9 µM
- EC50 [12]: 7.13 µM
- EC90 [12]: 10 µM
- EC50 (HCMV strain AD169 [4]; Human betaherpesvirus 5): 10 µM
- EC90 (HCMV strain AD169 [4]; Human betaherpesvirus 5): 10 µM
- CC50 at 72 h [13]: 50 µM
- CC50 [14]: 41.8 µM
- CC50 [15]: 50 µM
- EC90 [16]: 17.5 µM
- CC50 [8]: 50 µM
- EC50 (HSV1 strain E-377): 50 µM
- EC90 (HSV1 strain E-377): 50 µM
- EC50 (HSV2 strain G): 50 µM
- EC90 (HSV2 strain G): 50 µM
- EC50 (VZV strain Ellen): 10 µM
- EC90 (VZV strain Ellen): 10 µM

Structure (SMILES): O=S1(=O)CCC(Nc2cc3c4ccc(F)cc4nn3cn2)CC1 [VKT-018]
- CC50 [1]: 50 µM
- CC50 [9]: 97.1 µM
- CC50 [10]: 50 µM
- EC50 [11]: 45.7 µM
- EC90 [11]: 50 µM
- EC50 [12]: 3.69 µM
- EC90 [12]: 50 µM
- EC50 (HCMV strain AD169 [4]; Human betaherpesvirus 5): 50 µM
- EC90 (HCMV strain AD169 [4]; Human betaherpesvirus 5): 50 µM
- CC50 at 72 h [13]: 50 µM
- CC50 [14]: 50 µM
- CC50 [15]: 50 µM
- EC90 [16]: 16.4 µM
- CC50 [8]: 50 µM
- EC50 (HSV1 strain E-377): 50 µM
- EC90 (HSV1 strain E-377): 50 µM
- EC50 (HSV2 strain G): 50 µM
- EC90 (HSV2 strain G): 50 µM
- EC50 (VZV strain Ellen): 50 µM
- EC90 (VZV strain Ellen): 50 µM

Structure (SMILES): NC(=O)CN1CCC(Nc2cc3c4ccc(F)cc4nn3cn2)CC1 [VKT-026]
- CC50 (HFF cells; human): 26.9 µM
- EC50 (Murine CMV strain Smith [2]): 0.17 µM
- EC90 (Murine CMV strain Smith [2]): 5.38 µM
- CC50 [10]: 22 µM
- CC50 (MEF cells): 50 μ.M
- EC50 [12]: 7.71 µM
- EC90 [12]: 50 µM
- CC50 [14]: 24.7 µM
- CC50 [15]: 29.4 µM
- CC50 [8]: 10 µM
- EC50 (HSV1 strain E-377): 10 µM
- EC90 (HSV1 strain E-377): 10 µM
- EC50 (HSV2 strain G): 10 µM
- EC90 (HSV2 strain G): 50 µM
- EC50 (VZV strain Ellen): 10 µM
- EC90 (VZV strain Ellen): 10 µM
- EC50 [17]: 0.87 µM
- EC90 [17]: 10 µM

Structure (SMILES): N[C@@H]1CC[C@H](Nc2cc3c4ccc(F)cc4nn3cn2)C1 [VKT-034]
- % Remaining at 60 min [7, 18]: 81%
- CC50 [8]: 18.7 µM
- EC50 (HSV1 strain E-377): 10 µM
- EC90 (HSV1 strain E-377): 10 µM

Structure (SMILES): N[C@H]1CC[C@H](Nc2cc3c4ccc(F)cc4nn3cn2)C1 [VKT-036]
- % Remaining at 60 min [7, 18]: 82%
- CC50 [8]: 29.4 µM
- EC50 (HSV1 strain E-377): 10 µM
- EC90 (HSV1 strain E-377): 10 µM

Structure (SMILES): N[C@H]1CC[C@H](Nc2cc3c4ccc(F)cc4nn3cn2)CC1 [VKT-511, (1r,4r)-N1-(7-fluoropyrimido[1,6-b]indazol-3-yl)cyclohexane-1,4-diamine]
- CC50 (HFF cells): 6.98 µM
- % Remaining at 60 min ([7]; mouse, microsomes, 1 h): 107%
- EC50 (HCMV strain AD169 [4]): 2 µM
- EC90 (HCMV strain AD169 [4]): 2 µM
- IC50 (CDK9/cyclin T1): 0.0465 µM

Reference: patent US20240309004A1, “SELECTIVE CYCLIN-DEPENDENT KINASE INHIBITORS AND METHODS OF THERAPEUTIC USE THEREOF” (ViroKyne Therapeutics, LLC, priority 2021, published 2024)
